Series [1] addresses T1, 5-HT1A receptor (Homo sapiens, UniProt P08908).
T1 construct: host or cells: CHO-K1 (co-expressing Ga15)
T1 sequence (P08908 1-422): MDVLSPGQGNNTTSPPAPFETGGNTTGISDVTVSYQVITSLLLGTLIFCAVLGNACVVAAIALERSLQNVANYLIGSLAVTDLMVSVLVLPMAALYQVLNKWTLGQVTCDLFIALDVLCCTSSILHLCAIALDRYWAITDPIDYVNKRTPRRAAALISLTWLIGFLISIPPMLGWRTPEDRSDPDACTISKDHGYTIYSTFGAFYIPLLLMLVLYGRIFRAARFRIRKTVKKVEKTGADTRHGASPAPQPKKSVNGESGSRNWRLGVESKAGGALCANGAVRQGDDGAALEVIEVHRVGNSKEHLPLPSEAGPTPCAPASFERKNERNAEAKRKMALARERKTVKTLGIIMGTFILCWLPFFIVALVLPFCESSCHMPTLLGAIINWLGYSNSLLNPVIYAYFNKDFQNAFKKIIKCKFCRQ
Briefly: cAMP-Glo assay in +5-HT1A / -5-HT1A CHO-K1 cells. It is filed as cell-based. The note with it: forskolin-stimulated +5-HT1A vs -5-HT1A cells, increasing ligand.

For series [2], the target named is 5-HT2A receptor (Homo sapiens, UniProt P28223). In words: [3H]ketanserin competition radioligand binding assay (SPA). The note with it: control ligands.
Sequence of 5-HT2A receptor (Homo sapiens, UniProt P28223) (P28223 whole entry): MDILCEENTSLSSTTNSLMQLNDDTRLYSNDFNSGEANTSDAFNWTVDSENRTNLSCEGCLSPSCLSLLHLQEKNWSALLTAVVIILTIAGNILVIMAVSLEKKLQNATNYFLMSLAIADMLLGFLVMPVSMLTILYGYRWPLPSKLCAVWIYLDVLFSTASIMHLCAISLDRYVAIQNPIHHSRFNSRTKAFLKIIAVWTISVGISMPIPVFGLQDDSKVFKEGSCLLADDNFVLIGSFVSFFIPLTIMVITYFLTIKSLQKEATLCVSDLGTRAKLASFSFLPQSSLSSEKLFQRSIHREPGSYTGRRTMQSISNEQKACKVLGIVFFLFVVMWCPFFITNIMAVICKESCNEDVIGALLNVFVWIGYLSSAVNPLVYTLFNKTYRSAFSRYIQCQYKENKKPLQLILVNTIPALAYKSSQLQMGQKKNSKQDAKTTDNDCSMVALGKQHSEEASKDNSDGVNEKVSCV
The nature of series [3]: Mouse pharmacokinetic (PK) evaluation of drug metabolism to psilocin. The note with it: mean ± SD.
In series [4] the target is T2, 5-HT2A receptor (Mus musculus, UniProt P35363).
T2 construct: tissue Charles River; host or cells: whole animal, C57BL/6-Elite mice (brain neurons)
T2 sequence (P35363 whole entry): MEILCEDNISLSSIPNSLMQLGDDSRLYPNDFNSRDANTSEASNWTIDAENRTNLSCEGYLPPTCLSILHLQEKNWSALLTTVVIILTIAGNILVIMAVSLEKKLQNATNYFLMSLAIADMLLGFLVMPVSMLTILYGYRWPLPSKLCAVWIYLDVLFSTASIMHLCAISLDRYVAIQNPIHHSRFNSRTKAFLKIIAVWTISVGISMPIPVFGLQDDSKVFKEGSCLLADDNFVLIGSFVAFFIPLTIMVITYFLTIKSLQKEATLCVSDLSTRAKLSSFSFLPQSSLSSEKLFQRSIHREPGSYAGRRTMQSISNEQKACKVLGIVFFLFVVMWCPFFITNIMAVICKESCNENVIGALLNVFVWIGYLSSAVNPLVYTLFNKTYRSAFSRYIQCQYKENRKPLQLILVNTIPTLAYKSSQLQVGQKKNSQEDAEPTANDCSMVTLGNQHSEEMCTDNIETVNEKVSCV
Briefly: Drug-induced Head Twitch Response (HTR) in mice. The note with it: 1 mg/kg i.p., 15-to-30-minute window after dosing, vs vehicle. The format is in vivo.

The nature of series [5]: in vitro. The format is in vitro ADME, human. An excerpt: (§1) A fundamental evaluation in drug development is the assessment of absorption, distribution, metabolism, excretion, and pharmacokinetics (ADME/PK) (Eddershaw et al., 2000, Drug Discovery Today 5(9): 409-414). […] Drug stability upon exposure to human liver microsomes and liver S9 cellular fractions is a common in vitro assay to approximate in vivo, liver-based drug metabolism (Richardson et al., 2016 Drug Metabolism Letters 10:83-90). First-pass metabolism is also often approximated in vitro using intestinal microsome and cellular S9 fractions (Hatley et al., 2017, Biopharmaceuticals & Drug Disposition, 38(2):155-160). Further, it is well known that human serum, and particularly circulating serum esterases can contribute to systemic drug metabolism (Williams, F M 1987, Pharmacology and Therapeutics, 34:99-109). Many pharmacological agents are classified as prodrugs, as they undergo metabolic transformation in vivo upon administration to release the active drug compound into the systemic compartment (Zawilska J B, et al. 2013, Pharmacological Reports, 65:1-14). Psilocybin, a serotonergic psychedelic agent, is well known prodrug that is metabolized into the psychoactive product, psilocin (Dinis-Oliveira, R J 2017, Drug Metabolism Reviews, 49(1):84-91). To evaluate the capacity of test molecules to similarly serve as prodrugs of psilocin, time-dependent, metabolic stability assays using human AB serum, human intestinal microsomes (HIM), human intestinal S9 fractions (HIS9), human liver microsomes (HLM), human liver S9 fractions (HLS9), human alkaline phosphatase, and porcine esterase were performed. […] Liquid chromatography coupled mass spectrometry (LC-MS) was employed to track the conversion of the test molecules into psilocin. All intestinal and liver fractions and NADPH RapidStart reagent was purchased from Sekisui/XenoTech. Human AB serum was purchased from Sigma. For intestine and liver metabolism assays, 2.5 μM candidate compounds were incubated in 400 μg/ml of each cellular fraction (HLM, HLS9, HIM, or HIS9) in 50 mM potassium phosphate buffer (pH 7.4) containing 3 mM MgCl2 and 1 mM EDTA supplemented with NADPH RapidStart at 37° C. Samples were taken at the start of the assay, and at every 20 minutes for 2 hours. Time-point samples were precipitated with 1:1 volume of acetonitrile to quench the reaction before centrifugation at 4000×g for 20 minutes. Supernatants were analyzed for the presence of candidate prodrugs (parent molecule) and psilocin (the predicted metabolite) using Orbitrap LC-MS (Thermo Scientific) using previously described methods (Menéndez-Perdomo et al., 2021, J. Mass Spectrom., 56: e4683). The serum assays were carried out in 10% human AB serum in 50 mM potassium phosphate buffer (pH 7.4) containing 3 mM MgCl2 and 1 mM EDTA. Bovine alkaline phosphatase assays were carried out using one unit of purified enzyme in 50 mM potassium phosphate buffer (pH 7.4) containing 3 mM MgCl2 and 1 mM EDTA. Porcine esterase assays were carried out using one unit of purified enzyme in 50 mM potassium phosphate buffer (pH 7.4) containing 3 mM MgCl2 and 1 mM EDTA. Assay concentrations (μM) of both parent ‘prodrug’ molecule and psilocin metabolite, as quantified through LC-MS using routine standard curve procedures, were plotted as functions of assay time (minutes). The metabolism rate (T1/2) was determined from the metabolism curve plot using the one phase decay feature of GraphPad PRISM software (Version 9.2.0). The quantity of parent prodrug at time zero was set as 100%.
Positive controls were first tested to ensure that assays were functioning properly.

The nature of series [6]: In vitro metabolic stability / psilocin release, human AB serum. It is filed as in vitro ADME. The settings on record: AB serum.
Description: as §1, with “For intestine and liver metabolism assays, 2.5 μM candidate compounds were incubated in 400 μg/ml of each cellular fraction (HLM, HLS9, HIM, or HIS9) in 50 mM potassium phosphate buffer (pH 7.4) containing 3 mM MgCl2 and 1 mM EDTA supplemented with NADPH RapidStart at 37° C. Samples were taken at the start of the assay, and at every 20 minutes for 2 hours. Time-point samples were precipitated with 1:1 volume of acetonitrile to quench the reaction before centrifugation at 4000×g for 20 minutes.” left out, “The serum assays were carried out in 10% human AB serum in 50 mM potassium phosphate buffer (pH 7.4) containing 3 mM MgCl2 and 1 mM EDTA. Bovine alkaline phosphatase assays were carried out using one unit of purified enzyme in 50 mM potassium phosphate buffer (pH 7.4) containing 3 mM MgCl2 and 1 mM EDTA. Porcine esterase assays were carried out using one unit of purified enzyme in 50 mM potassium phosphate buffer (pH 7.4) containing 3 mM MgCl2 and 1 mM EDTA.” left out, “100%. […]” for “100%.”

Setting [7] is: 1 mg/kg oral of administered compound.
Setting [8] is: 3 mg/kg oral of administered compound.
The mark [9] stands for this setting: 10 mg/kg oral of administered compound.

SMILES strings stand for the structures.

Regarding `NCCc1c[nH]c2ccc(O)cc12` [serotonin], the “cAMP level / 5-HT1A receptor modulation (in words)” value in series [1] was “reduction in cAMP levels”.

Take `N[C@@H](Cc1c[nH]c2ccccc12)C(=O)O` [tryptophan]: the “cAMP level / 5-HT1A receptor modulation (in words)” value in series [1] is recorded as “no reduction in cellular cAMP levels”. Moreover, the “5-HT2A competition binding (in words)” value in series [2] is given as “negative control (no binding)”.

Take `CN(C)CCc1c[nH]c2cccc(OC(=O)OCc3ccccc3)c12` [B(II), reference compound]: the “Plasma concentration of psilocin” value in series [3] (1 mg/kg oral of administered compound, 0.25 h) is recorded as 19.7 ± 5.50 ng/mL; in series [3] (1 mg/kg oral of administered compound, 0.5 h), 11.9 ± 2.03 ng/mL; in series [3] (1 mg/kg oral of administered compound, 1 h), 4.63 ± 0.788 ng/mL; in series [3] (1 mg/kg oral of administered compound, 2 h), 2.20 ± 0.850 ng/mL; in series [3] (1 mg/kg oral of administered compound, 4 h), 2.05 ± 0.359 ng/mL; in series [3] (1 mg/kg oral of administered compound, 6 h), 0.739 ± 0.288 ng/mL. The “Plasma concentration of psilocin” value in series [3] (1 mg/kg oral of administered compound, 8 h) worked out at 0.453 ± 0.0460 ng/mL; in series [3] (3 mg/kg oral of administered compound, 0.25 h), 55.6 ± 8.67 ng/mL; in series [3] (3 mg/kg oral of administered compound, 0.5 h), 32.3 ± 4.98 ng/mL; in series [3] (3 mg/kg oral of administered compound, 1 h), 9.29 ± 3.05 ng/mL; in series [3] (3 mg/kg oral of administered compound, 2 h), 7.67 ± 0.921 ng/mL; in series [3] (3 mg/kg oral of administered compound, 4 h), 6.76 ± 2.13 ng/mL. Besides, the “Plasma concentration of psilocin” value in series [3] (3 mg/kg oral of administered compound, 6 h) was determined as 2.41 ± 0.845 ng/mL; in series [3] (3 mg/kg oral of administered compound, 8 h), 0.722 ± 0.368 ng/mL; in series [3] (10 mg/kg oral of administered compound, 0.25 h) it was 306 ± 34.6 ng/mL; in series [3] (10 mg/kg oral of administered compound, 0.5 h) it was 125 ± 16.3 ng/mL; in series [3] (10 mg/kg oral of administered compound, 1 h) it was 49.6 ± 10.5 ng/mL; in series [3] (10 mg/kg oral of administered compound, 2 h), 20.7 ± 1.42 ng/mL. Besides, the “Plasma concentration of psilocin” value in series [3] (10 mg/kg oral of administered compound, 4 h) was determined as 31.4 ± 6.34 ng/mL; in series [3] (10 mg/kg oral of administered compound, 6 h), 11.5 ± 1.43 ng/mL; in series [3] (10 mg/kg oral of administered compound, 8 h) it was 6.38 ± 2.98 ng/mL; in series [3] (10 mg/kg oral of administered compound, 24 h), 0.104 ng/mL. For the same compound, the “AUC0-tlast/Dose (plasma psilocin)” value in series [3] (setting [7]) is 21.0 ± 1.55 kg·ng·h/mL/mg; in series [3] (setting [8]), 20.3 ± 2.78 kg·ng·h/mL/mg; in series [3] (setting [9]), 28.2 ± 4.12 kg·ng·h/mL/mg. In addition, the entries for the “Cmax/Dose (plasma psilocin)” value in series [3] (setting [7]), in series [3] (setting [8]) and in series [3] (setting [9]) were 19.7 ± 5.50 kg·ng/mL/mg, 18.5 ± 2.89 kg·ng/mL/mg and 30.6 ± 3.46 kg·ng/mL/mg, respectively. For the same compound, in series [4], the “Head Twitch Response (in words)” value is “elicit head twitching”. The “metabolic stability / conversion to psilocin (in words)” value in series [5] (HLM) is listed as “did not readily dissociate to psilocin under any conditions”; in series [5] (HLS9), “did not readily dissociate to psilocin under any conditions”; in series [6] it was “failed completely to dissociate”.

On to `CN(C)CCc1c[nH]c2cccc(O)c12` [psilocin], for which, in series [1], the “cAMP level / 5-HT1A receptor modulation (in words)” value is “reduction in cAMP levels”. Moreover, the “5-HT2A competition binding (in words)” value in series [2] was “positive control (binding)”.

The values above are taken from patent US11707447B1.
